Data as given in patent publication US20240246967A1, “AXL COMPOUNDS” (ARCUS BIOSCIENCES, INC., priority 2021, published 2024).
pIC50: −log10 of the molar value.

biological target: T1, Axl (Homo sapiens, UniProt P30530); assay: Axl NanoBRET intracellular kinase assay (intracellular binding, Cell Binding); parameters: host or cells: HEK-293; conditions: HEK-293 cells transfected with Axl-NanoLuc fusion vector; 0.35 μM K-5 NanoBRET tracer
T1 sequence (P30530 26-894): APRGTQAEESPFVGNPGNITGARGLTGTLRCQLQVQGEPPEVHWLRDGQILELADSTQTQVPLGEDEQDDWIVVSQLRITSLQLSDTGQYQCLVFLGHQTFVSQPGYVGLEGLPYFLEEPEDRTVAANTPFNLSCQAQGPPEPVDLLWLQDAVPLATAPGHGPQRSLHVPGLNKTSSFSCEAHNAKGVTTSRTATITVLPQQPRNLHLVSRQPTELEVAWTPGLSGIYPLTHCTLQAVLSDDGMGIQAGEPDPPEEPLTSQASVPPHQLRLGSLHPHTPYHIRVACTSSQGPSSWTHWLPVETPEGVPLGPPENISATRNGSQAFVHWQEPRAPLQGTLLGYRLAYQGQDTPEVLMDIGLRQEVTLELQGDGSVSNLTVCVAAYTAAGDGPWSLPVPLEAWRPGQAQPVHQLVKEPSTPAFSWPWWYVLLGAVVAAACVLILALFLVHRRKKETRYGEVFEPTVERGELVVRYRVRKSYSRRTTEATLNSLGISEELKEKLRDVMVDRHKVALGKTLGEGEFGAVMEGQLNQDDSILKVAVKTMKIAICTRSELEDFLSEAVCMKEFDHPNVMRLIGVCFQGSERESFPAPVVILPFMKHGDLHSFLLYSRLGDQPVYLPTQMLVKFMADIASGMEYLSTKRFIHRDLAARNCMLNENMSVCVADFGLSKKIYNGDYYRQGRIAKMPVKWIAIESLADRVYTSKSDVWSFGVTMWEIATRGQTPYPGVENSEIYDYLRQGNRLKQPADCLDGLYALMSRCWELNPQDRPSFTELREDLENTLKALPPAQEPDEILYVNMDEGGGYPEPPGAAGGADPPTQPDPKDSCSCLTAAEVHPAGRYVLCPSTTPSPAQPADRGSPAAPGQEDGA
Summary of the method: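 BRET ratio (610 nm/450 nm) decrease from K-5 tracer displacement gave binding; IC50 by 4-parameter non-linear regression of percent activity. Live HEK-293 cells expressed transiently transfected Axl-NanoLuc. Compound 1 h, then 0.35 μM tracer 2 h, both 37 °C, 5% CO2.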

pIC50	Structure (SMILES)
< 6.00	C[C@@H]1CCCN1[C@@H]1CCc2cc(-c3cnc4[nH]nc(-c5ccc(S(=O)(=O)C6CC6)cc5)c4c3)cnc2CC1 [Example 101, (2R)-1-(3-{3-[4-(Cyclopropanesulfonyl)phenyl]-1H-pyrazolo[3,4-b]pyridin-5-yl}-5H,6H,7H,8H,9H-cyclohepta[b]pyridin-7-yl)-2-methylpyrrolidine]
> 7.00	CCS(=O)(=O)c1ccc(-c2n[nH]c3ncc(-c4ccc5c(c4)CC[C@@H](N4CCCC4)CC5)cc23)cc1 [Example 41, (S)-3-(4-(Ethylsulfonyl)phenyl)-5-(7-(pyrrolidin-1-yl)-6,7,8,9-tetrahydro-5H-benzo[7]annulen-2-yl)-1H-pyrazolo[3,4-b]pyridine]
6.00 to 7.00	CC(C)(O)c1ccc(-c2n[nH]c3ncc(-c4ccc5c(c4)CCN(C4CCCC4)CC5)cc23)cn1 [Example 10, 2-{5-[5-(3-Cyclopentyl-2,3,4,5-tetrahydro-1H-3-benzazepin-7-yl)-1H-pyrazolo[3,4-b]pyridin-3-yl]pyridin-2-yl}propan-2-ol]
> 7.00	C[C@@H]1CCCN1C1CCc2ccc(-c3cnc4[nH]nc(-c5ccc(C(C)(C)O)c(Cl)c5)c4c3)cc2CC1 (stereo partly drawn) [Example 35, 2-(2-Chloro-4-(5-(7-((R)-2-methylpyrrolidin-1-yl)-6,7,8,9-tetrahydro-5H-benzo[7]annulen-2-yl)-1H-pyrazolo[3,4-b]pyridin-3-yl)phenyl)propan-2-ol]
> 7.00	C[C@@H]1CCCN1C1CCc2ccc(-c3cnc4[nH]nc(-c5ccc(S(=O)(=O)C6CC6)cc5)c4c3)cc2CC1 (stereo partly drawn) [Example 39, 3-(4-(Cyclopropylsulfonyl)phenyl)-5-(7-((R)-2-methylpyrrolidin-1-yl)-6,7,8,9-tetrahydro-5H-benzo[7]annulen-2-yl)-1H-pyrazolo[3,4-b]pyridine]
6.00 to 7.00	Cc1cc(-c2n[nH]c3ncc(-c4ccc5c(c4)CCN(C(=O)C(C)C)CC5)cc23)ccc1C(=O)N1CCNCC1 [Example 48, 2-Methyl-1-(7-{3-[3-methyl-4-(piperazine-1-carbonyl)phenyl]-1H-pyrazolo[3,4-b]pyridin-5-yl}-2,3,4,5-tetrahydro-1H-3-benzazepin-3-yl)propan-1-one]
6.00 to 7.00	c1cc2c(cc1-c1cnc3[nH]nc(-c4ccc(N5C[C@H]6C[C@@H]5CO6)cc4)c3c1)CC[C@@H](N1C3COCC1C3)CC2 [Example 126, (1R,4R)-5-(4-{5-[(7S)-7-{3-oxa-6-azabicyclo[3.1.1]heptan-6-yl}-6,7,8,9-tetrahydro-5H-benzo[7]annulen-2-yl]-2H-pyrazolo[3,4-b]pyridin-3-yl}phenyl)-2-oxa-5-azabicyclo[2.2.1]heptane]
> 7.00	COc1cc(-c2n[nH]c3ncc(-c4ccc5c(c4)CCC(C)(N4CCC[C@H]4C)CC5)cc23)ccc1OC[C@H]1COCCO1 (stereo partly drawn) [Example 114, (2R)-1-{2-[3-(4-{[(2R)-1,4-Dioxan-2-yl]methoxy}-3-methoxyphenyl)-1H-pyrazolo[3,4-b]pyridin-5-yl]-7-methyl-6,7,8,9-tetrahydro-5H-benzo[7]annulen-7-yl}-2-methylpyrrolidine]
> 7.00	CC(C)(O)c1ccc(-c2n[nH]c3ncc(-c4ccc5c(c4)CCC(N4CCCC4)CC5)cc23)cc1Cl (centres unmarked) [Example 11, 2-(2-Chloro-4-{5-[7-(pyrrolidin-1-yl)-6,7,8,9-tetrahydro-5H-benzo[7]annulen-2-yl]-1H-pyrazolo[3,4-b]pyridin-3-yl}phenyl)propan-2-ol]
> 7.00	Cc1cc(-c2n[nH]c3ncc(-c4ccc5c(c4)CC[C@@H](N4CCCC4)CC5)cc23)cc(Cl)c1C(=O)N1CCNCC1 [Example 56, 1-(2-Chloro-6-methyl-4-{5-[(7S)-7-(pyrrolidin-1-yl)-6,7,8,9-tetrahydro-5H-benzo[7]annulen-2-yl]-1H-pyrazolo[3,4-b]pyridin-3-yl}benzoyl)piperazine]
6.00 to 7.00	CCC1(N2CCC[C@H]2C)CCc2ccc(-c3cnc4[nH]nc(-c5ccc(S(=O)(=O)C6CC6)cc5)c4c3)cc2CC1 (stereo partly drawn) [Example 6, (2R)-1-(2-{3-[4-(Cyclopropanesulfonyl)phenyl]-1H-pyrazolo[3,4-b]pyridin-5-yl}-7-ethyl-6,7,8,9-tetrahydro-5H-benzo[7]annulen-7-yl)-2-methylpyrrolidine]
> 7.00	C[C@@H]1CCCN1C1CCc2ccc(-c3cnc4[nH]nc(-c5ccc(C(C)(C)O)c(C(F)(F)F)c5)c4c3)cc2CC1 (stereo partly drawn) [Example 20, 2-[4-(5-{7-[(2R)-2-Methylpyrrolidin-1-yl]-6,7,8,9-tetrahydro-5H-benzo[7]annulen-2-yl}-1H-pyrazolo[3,4-b]pyridin-3-yl)-2-(trifluoromethyl)phenyl]propan-2-ol]
> 7.00	C[C@H]1CCCN1C1(C)CCc2ccc(-c3cnc4[nH]nc(-c5ccc(S(=O)(=O)C6CC6)cc5)c4c3)cc2CC1 (stereo partly drawn) [Example 5, (2S)-1-(2-{3-[4-(Cyclopropanesulfonyl)phenyl]-1H-pyrazolo[3,4-b]pyridin-5-yl}-7-methyl-6,7,8,9-tetrahydro-5H-benzo[7]annulen-7-yl)-2-methylpyrrolidine]
< 6.00	C[C@@H]1CCCN1C1CCc2ccc(-c3cnc4[nH]nc(-c5ccc(C(C)(C)O)cn5)c4c3)cc2CC1 (stereo partly drawn) [Example 97, 2-[6-(5-{7-[(2R)-2-Methylpyrrolidin-1-yl]-6,7,8,9-tetrahydro-5H-benzo[7]annulen-2-yl}-1H-pyrazolo[3,4-b]pyridin-3-yl)pyridin-3-yl]propan-2-ol]
> 7.00	C[C@@H]1CCCN1C1CCc2ccc(-c3cnc4[nH]nc(-c5ccc(S(=O)(=O)C6CC6)cc5)c4c3)cc2C(C)(C)C1 (stereo partly drawn) [Example 109, (2R)-1-(2-{3-[4-(Cyclopropanesulfonyl)phenyl]-1H-pyrazolo[3,4-b]pyridin-5-yl}-9,9-dimethyl-6,7,8,9-tetrahydro-5H-benzo[7]annulen-7-yl)-2-methylpyrrolidine]
6.00 to 7.00	C[C@H]1CCCN1C1(C)CCc2ccc(-c3cnc4[nH]nc(-c5ccc(C(C)(C)O)c(Cl)c5)c4c3)cc2CC1 (stereo partly drawn) [Example 58, 2-[2-Chloro-4-(5-{7-methyl-7-[(2S)-2-methylpyrrolidin-1-yl]-6,7,8,9-tetrahydro-5H-benzo[7]annulen-2-yl}-1H-pyrazolo[3,4-b]pyridin-3-yl)phenyl]propan-2-ol]
6.00 to 7.00	CCS(=N)(=O)c1ccc(-c2n[nH]c3ncc(-c4ccc5c(c4)CCC(C)(N4CCC[C@H]4C)CC5)cc23)cc1 (stereo partly drawn) [Example 100, Ethyl(imino)[4-(5-{7-methyl-7-[(2R)-2-methylpyrrolidin-1-yl]-6,7,8,9-tetrahydro-5H-benzo[7]annulen-2-yl}-1H-pyrazolo[3,4-b]pyridin-3-yl)phenyl]-λ^6-sulfanone]
> 7.00	C[C@@H]1CCCN1C1(C)CCc2ccc(-c3cnc4[nH]nc(-c5ccc(C(C)(C)O)nc5)c4c3)cc2CC1 (stereo partly drawn) [Example 22, 2-[5-(5-{7-Methyl-7-[(2R)-2-methylpyrrolidin-1-yl]-6,7,8,9-tetrahydro-5H-benzo[7]annulen-2-yl}-1H-pyrazolo[3,4-b]pyridin-3-yl)pyridin-2-yl]propan-2-ol]
> 7.00	C[C@@H]1CCCN1C1(C)CCc2ccc(-c3cnc4[nH]nc(-c5ccc(S(N)(=O)=O)cc5)c4c3)cc2CC1 (stereo partly drawn) [Example 95, 4-(5-(7-Methyl-7-((R)-2-methylpyrrolidin-1-yl)-6,7,8,9-tetrahydro-5H-benzo[7]annulen-2-yl)-1H-pyrazolo[3,4-b]pyridin-3-yl)benzenesulfonamide]
> 7.00	COCCOc1ccc(-c2n[nH]c3ncc(-c4ccc5c(c4)CCC(C)(N4CCC[C@H]4C)CC5)cc23)cc1 (stereo partly drawn) [Example 110, 3-(4-(2-Methoxyethoxy)phenyl)-5-(7-methyl-7-((R)-2-methylpyrrolidin-1-yl)-6,7,8,9-tetrahydro-5H-benzo[7]annulen-2-yl)-1H-pyrazolo[3,4-b]pyridine]
> 7.00	C[C@@H]1CCCN1C1(C)CCc2ccc(-c3cnc4[nH]nc(-c5ccc(C(N)=O)cc5)c4c3)cc2CC1 (stereo partly drawn) [Example 54, 4-(5-(7-Methyl-7-((R)-2-methylpyrrolidin-1-yl)-6,7,8,9-tetrahydro-5H-benzo[7]annulen-2-yl)-1H-pyrazolo[3,4-b]pyridin-3-yl)benzamide]
< 6.00	CC(C)(O)c1ccc(-c2n[nH]c3ncc(-c4ccc5c(c4)CC4CCC(C5)C4N4CCCC4)cc23)cc1Cl (centres unmarked) [Example 61, 2-(2-Chloro-4-{5-[13-(pyrrolidin-1-yl)tricyclo[8.2.1.0^3,8]trideca-3,5,7-trien-5-yl]-1H-pyrazolo[3,4-b]pyridin-3-yl}phenyl)propan-2-ol]
> 7.00	CC1(N2CCC2)CCc2ccc(-c3cnc4[nH]nc(-c5ccc(S(=O)(=O)C6CC6)cc5)c4c3)cc2CC1 (centres unmarked) [Example 7, 1-(2-{3-[4-(Cyclopropanesulfonyl)phenyl]-1H-pyrazolo[3,4-b]pyridin-5-yl}-7-methyl-6,7,8,9-tetrahydro-5H-benzo[7]annulen-7-yl)azetidine]
